ChEMBL document CHEMBL1132778, “Synthesis of derivatives of NK109, 7-OH benzo[c]phenanthridine alkaloid, and evaluation of their cytotoxicities and reduction-resistant properties” (Bioorg Med Chem Lett, 2000)

Tested on: HeLa
Experiment: Evaluated for cytotoxicity against HeLa S3 cells
Type: functional, cell-based
Conditions: Homo sapiens

Structure (SMILES)	IC50
C[n+]1cc2c(O)c(OCc3ccccc3)ccc2c2ccc3cc4c(cc3c21)OCO4	17000 nM
CCC[n+]1cc2c(O)c(OC)ccc2c2ccc3cc4c(cc3c21)OCO4	400 nM
C=CCOc1ccc2c(c[n+](C)c3c4cc5c(cc4ccc23)OCO5)c1O	710 nM
CCCc1c2c(O)c(OC)ccc2c2ccc3cc4c(cc3c2[n+]1C)OCO4	2900 nM
COc1ccc(-c2c3c(O)c(OC)ccc3c3ccc4cc5c(cc4c3[n+]2C)OCO5)cc1	16000 nM
CC(=O)OCCOc1ccc2c(c[n+](C)c3c4cc5c(cc4ccc23)OCO5)c1O	480 nM
CC[n+]1cc2c(O)c(OC)ccc2c2ccc3cc4c(cc3c21)OCO4	400 nM
COC(=O)COc1ccc2c(c[n+](C)c3c4cc5c(cc4ccc23)OCO5)c1O	15000 nM
C=CC[n+]1cc2c(O)c(OC)ccc2c2ccc3cc4c(cc3c21)OCO4	760 nM
C[n+]1cc2c(O)c(OCC(=O)O)ccc2c2ccc3cc4c(cc3c21)OCO4	> 24000 nM
CCc1c2c(O)c(OC)ccc2c2ccc3cc4c(cc3c2[n+]1C)OCO4	11000 nM
CC(C)Oc1ccc2c(c[n+](C)c3c4cc5c(cc4ccc23)OCO5)c1O	2400 nM
COc1ccc2c(c[n+](CC(=O)O)c3c4cc5c(cc4ccc23)OCO5)c1O	> 24000 nM
COc1ccc2c(c1O)c(C)[n+](C)c1c3cc4c(cc3ccc21)OCO4	2900 nM
COc1ccc2c(c1O)c(-c1ccccc1)[n+](C)c1c3cc4c(cc3ccc21)OCO4	17000 nM
C[n+]1cc2c(O)c(OCCO)ccc2c2ccc3cc4c(cc3c21)OCO4	520 nM
COc1ccc2c(c1O)c(C1CC1)[n+](C)c1c3cc4c(cc3ccc21)OCO4	6500 nM
C[n+]1cc2c(O)c(OCC(N)=O)ccc2c2ccc3cc4c(cc3c21)OCO4	1900 nM
COc1ccc2c(c[n+](C)c3c4cc5c(cc4ccc23)OCO5)c1O [FAGARIDINE]	320 nM
